Experimental data from patent US20080132562A1, “TETRONIC AND TETRAMIC ACIDS” (priority 2003, published 2008).

Biological target: T1, purified BACE protein (β-secretase) (Homo sapiens, UniProt P56817)
T1 construct: made in house
Assay: Competitive Radioligand Binding Assay (RLBA)
Conditions: β-secretase inhibition; displacement of tritiated Compound A tracer from plate-coated BACE, binding buffer pH 4.1; read-out: IC50 in vitro
Procedure: Competitive Radioligand Binding Assay (RLBA)
96 well microplates (Optiplate Packard) are coated with purified BACE protein (see e.g. GB 2,385,124: Examples 1 and 2) using a concentration of 1 μg/ml in 30 mM sodium citrate buffer adjusted to pH 5.5. The coating is achieved by incubation of 100 μl/well for 1-3 days at 4° C. The plate is then washed with 2×300 μl/well of 10 mM citrate pH 4.1. To each well 100 μl binding buffer (30 mM citrate, 100 mM NaCl, 0.1% BSA, pH 4.1) is dispensed. The test compound is added in 5 μl from a DMSO stock solution or appropriate dilutions. To this the tracer (tritiated Compound A, see e.g. GB 2,385,124: Example 4) is added in 10 μl/well from a 10 μCi/ml stock solution in binding buffer. After incubation for 1.5-2 hours in a humid chamber at ambient temperature the plate is washed with 2×300 μl/well water and flipped on a dry towel. Following the addition of 50 μl/well MicroScint20 (Packard) the plate is sealed and vibrated for 5 seconds. The bound radioactivity is counted on a Topcount (Packard). Total binding is typically between 2000 and 10000 cpm/well depending mainly on the purity and concentration of the BACE protein. Non-specific binding as assessed by competition with >1 μM peptidic inhibitor (Bachem #H-4848) is typically between 30 and 300 cpm/well. The IC-50 values are calculated by Microsoft Excel FIT.

T1 sequence (P56817 46-501): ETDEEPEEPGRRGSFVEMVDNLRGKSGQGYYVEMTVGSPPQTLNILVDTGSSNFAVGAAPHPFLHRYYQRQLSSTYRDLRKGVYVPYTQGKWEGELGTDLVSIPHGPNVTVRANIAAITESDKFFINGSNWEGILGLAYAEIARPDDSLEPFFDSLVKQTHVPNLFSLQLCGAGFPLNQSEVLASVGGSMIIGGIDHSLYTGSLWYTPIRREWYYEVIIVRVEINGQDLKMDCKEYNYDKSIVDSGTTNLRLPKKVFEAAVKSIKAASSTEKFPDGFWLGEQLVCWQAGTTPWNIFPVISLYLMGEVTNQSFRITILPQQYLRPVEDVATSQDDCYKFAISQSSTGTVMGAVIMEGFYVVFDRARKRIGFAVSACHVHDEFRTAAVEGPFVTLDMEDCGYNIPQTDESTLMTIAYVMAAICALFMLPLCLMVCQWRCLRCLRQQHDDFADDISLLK

O=C(CCCC1CCCCC1)C1=C(O)C(CCc2ccccc2)OC1=O (racemic) [Example E7, Rac-3-(4-cyclohexyl-butyryl)-4-hydroxy-5-phenethyl-5H-furan-2-one]
IC50: 57 µM

CC(Cc1ccc(OCc2ccccc2)cc1)C(=O)C1=C(O)C(CC2CCCCC2)OC1=O (stereo not drawn) [Example C9, 3-[3-(4-Benzyloxy-phenyl)-2-methyl-propionyl]-5-cyclohexylmethyl-4-hydroxy-5H-furan-2-one]
IC50: 13 µM

COc1ccc(Cl)cc1C(=O)NCCc1ccc(CC(C)C(=O)C2=C(O)C(CC3CCCCC3)OC2=O)cc1 (stereo not drawn) [Example C12, 5-Chloro-N-(2-{4-[3-(5-cyclohexylmethyl-4-hydroxy-2-oxo-2,5-dihydro-furan-3-yl)-2-methyl-3-oxo-propyl]-phenyl}-ethyl)-2-methoxy-benzamide]
IC50: 12 µM

O=C(Cc1cn(Cc2ccc(F)cc2)c2ccccc12)C1=C(O)C(CC2CCCCC2)OC1=O (stereo not drawn) [Example C19, 5-Cyclohexylmethyl-3-{[1-(4-fluoro-benzyl)-1H-indol-3-yl]-acetyl}-4-hydroxy-5H-furan-2-one]
IC50: 15 µM

O=C(Cn1c2ccccc2c2ccccc21)C1=C(O)C(CC2CCCCC2)OC1=O (stereo not drawn) [Example C33, 3-(Carbazol-9-yl-acetyl)-5-cyclohexylmethyl-4-hydroxy-5H-furan-2-one]
IC50: 11 µM

CC(Cc1ccc(C(C)(C)C)cc1)C(=O)C1=C(O)C(Cc2ccccc2)OC1=O (stereo not drawn) [Example D2, 5-Benzyl-3-[3-(4-tert-butyl-phenyl)-2-methyl-propionyl]-4-hydroxy-5H-furan-2-one]
IC50: 33 µM

O=C(Cc1c[nH]c2ccccc12)C1=C(O)C(CCCc2ccccc2)OC1=O (stereo not drawn) [Example F5, 4-Hydroxy-3-[(H-indol-3-yl)-acetyl]-5-(3-phenyl-propyl)-5H-furan-2-one]
IC50: 14 µM

O=C(CC(c1ccccc1)c1ccccc1)C1=C(O)C(CCCN2CCOCC2)OC1=O (stereo not drawn) [Example G29, 3-(3,3-Diphenyl-propionyl)-4-hydroxy-5-(3-morpholin-4-yl-propyl)-5H-furan-2-one]
IC50: 85 µM

CC1(CCc2ccccc2)OC(=O)C(C(=O)CC2c3ccccc3-c3ccccc32)=C1O (stereo not drawn) [Example I7, 3-[(9H-Fluoren-9-yl)-acetyl]-4-hydroxy-5-methyl-5-phenethyl-5H-furan-2-one]
IC50: 31 µM

O=C(CC(c1ccccc1)c1ccccc1)C1=C(O)C(CCc2ccccc2)(c2ccccc2)OC1=O (stereo not drawn) [Example J4, 3-(3,3-Diphenyl-propionyl)-4-hydroxy-5-phenethyl-5-phenyl-5H-furan-2-one]
IC50: 41 µM

NC(Cc1ccc(OCc2ccccc2)cc1)C(=O)C1=C(O)C(CCc2ccccc2)NC1=O (stereo not drawn) [Example K38, 3-[2-Amino-3-(4-benzyloxy-phenyl)-propionyl]-4-hydroxy-5-phenethyl-1,5-dihydro-pyrrol-2-one; compound with trifluoro-acetic acid]
IC50: 16 µM

O=C(Cn1c2ccccc2c2ccccc21)C1=C(O)C(CCc2ccccc2)NC1=O (stereo not drawn) [Example K46, 3-(Carbazol-9-yl-acetyl)-4-hydroxy-5-phenethyl-1,5-dihydro-pyrrol-2-one]
IC50: 36 µM
